Residues, ends and D or L forms follow the SMILES beside them. *: point of attachment. Propanoyl(3-maleimido) = O=C1C=CC(=O)N1CCC(=O)*; Mal = not defined here
Experiments:
[1] = system: Mouse tail fibroblast (MTF) cells; test: siRNA cell-uptake and MFI measured by FACS after peptide-mediated transfection of labeled siRNA; format: cell-based; conditions: for % Cell-Uptake: % of total cells with intracellular labeled siRNA; for intracellular delivery of siRNA (verbal conclusion from cell-uptake and cell viability): conclusion drawn from Table 3; for MFI: relative value
Description: SiRNA cell uptake was measured by FACS.
For the instant example, cell-uptake, mean fluorescent intensity (MFI) and cell viability was measured for each peptide. siRNA cell-uptake was measured by the presence of intracellular labeled siRNA. The cell-uptake assay determined the percentage of cells that contain the labeled siRNA. Mean Fluorescence Intensity (MFI) was used to determine the relative mean quantity of labeled siRNA that entered the cells.
A non-transfection, siRNA alone, control was also performed.
Within Table 3, “ND” means no data.

in vitro = conditions: C57BL/6J, mouse, mouse tail fibroblast (MTF) cells
Description: (§1) Mouse tail fibroblast (MTF) cells were derived from the tails of C57BL/6J mice. Tails were removed, immersed in 70% ethanol and then cut into small sections with a razor blade. The sections were washed three times with PBS and then incubated in a shaker at 37° C. with 0.5 mg/mL collagenase, 100 units/mL penicillin and 100 μg/mL streptomycin to disrupt tissue. Tail sections were then cultured in complete media (Dulbecco's Modified […] Medium with 20% FBS, 1 mM sodium pyruvate, nonessential amino acids and 100 units/mL penicillin and 100 μg/mL streptomycin) until cells were established. Cells were cultured at 37° C., 5% CO2 in complete media as outlined above.
(§2) Cells were be plated per well in a microtiter plate the day before transfection in complete media. The siRNA was be labeled, for example with a FAM, Alexa488, Alexa647 or Cy-5 conjugate. The cationic polymer peptide and siRNA were mixed in the microtiter plate complex with cells previously with OptiMEM. 7-AAD was added to each transfection to measure cell viability. Cells were transfected for three hours at 37° C., 5% CO2. The transfection mixture was removed and the cells were washed with TE buffer for about 10 minutes at 37° C., 5% CO2. Transfected cells were transferred to a V bottom plate and centrifuged. The TE buffer was removed and the transfected cells were resuspended in fluorescence activated cell sorting (FACS) buffer.
(§3) A non-transfection, siRNA alone, control was also performed. The peptide PN183 served herein as a positive cell-uptake control.
(§4) Cell-uptake is expressed as a percentage of the total cells with intracellular labeled siRNA. Cell Viability is also expressed as a percentage where 100% represents 100% viability. The MFI value is a relative value with a higher MFI value indicating a greater amount of labeled siRNA entered the cell. Within Table 3, “ND” means no data.

[2] = system: Mouse tail fibroblast (MTF) cells; test: in vitro; conditions: 200 nM siRNA, 100% represents 100% viability
Description: as §1, §2, §3, §4

[3] = peptide concentration 1 μM, 200 nM labeled siRNA
[4] = peptide concentration 10 μM, 200 nM labeled siRNA
[5] = peptide concentration 100 μM, 200 nM labeled siRNA
[6] = peptide concentration 1 μM, 200 nM labeled siRNA, higher = more labeled siRNA entered the cell
[7] = peptide concentration 10 μM, 200 nM labeled siRNA, higher = more labeled siRNA entered the cell
[8] = peptide concentration 100 μM, 200 nM labeled siRNA, higher = more labeled siRNA entered the cell

Row | Molecule | % Cell-Uptake [1, 3] [%] | % Cell-Uptake [1, 4] [%] | % Cell-Uptake [1, 5] [%] | viability at 3 h, 1 µM (in vitro) [%] | viability at 3 h, 10 µM (in vitro) [%] | viability at 3 h, 100 µM (in vitro) [%] | % Cell Viability ([2]; peptide concentration 1 μM) [%] | % Cell Viability ([2]; peptide concentration 10 μM) [%] | % Cell Viability ([2]; peptide concentration 100 μM) [%] | intracellular delivery of siRNA (verbal conclusion from cell-uptake and cell viability) [1] | MFI [1, 6] | MFI [1, 7] | MFI [1, 8] | percent cell-uptake ([1]; concentration not given) | MFI ([1]; concentration not given)
1 | H-KHKHKHKHKHKHKHKHKHKH-NH2 [PN938, NH2-(Lys-His)10-amide] | 0.6 | 0.5 | 5.9 | 97.9 | 98.6 | 98.8 | – | – | – | – | – | – | – | – | –
2 | PEG (2 KDa)-Mal-(Lys)15-amide ({PEG 2 kDa-Mal}-KKKKKKKKKKKKKKK-NH2; reading uncertain; also: printed as PEG (2 KDa)-Mal-(Lys)15-amide) [PN930] | 0.2 | 1.5 | 0.8 | – | – | – | 97.9 | 97.2 | 97.8 | – | – | – | – | – | –
3 | H-KHKHKHKHKHKHKHKHKHKHKHKHKHKHKH-NH2 [PN935, NH2-(Lys-His)15-amide] | 20.3 | 36.1 | 24.6 | 98.1 | 97.3 | 96.6 | – | – | – | effective intracellular delivery of siRNA without negatively impacting cell viability | 1.94 | 2.2 | 2.16 | – | –
4 | H-KETWWETWWTEWSQPGRKKRRQRRRPPQ-NH2 [PN183, reference compound] | 9.3 | 47.4 | 58.9 | 96 | 96.8 | 76.7 | – | – | – | – | 3.61 | 3.77 | 10.5 | approximately 59% | ~11
5 | PEG (10 KDa)-Mal-(Lys)20-amide ({PEG 10 kDa-Mal}-KKKKKKKKKKKKKKKKKKKK-NH2; reading uncertain) [PN928] | 3.9 | 2.3 | 3.2 | – | – | – | 97.3 | 98 | 98.2 | – | – | – | – | – | –
6 | CC[C@H](C)[C@H](NC(=O)[C@H](C)NC(=O)CNC(=O)[C@H](Cc1ccccc1)NC(=O)[C@@H](NC(=O)[C@H](CCC(=O)O)NC(=O)[C@H](CC(N)=O)NC(=O)CNC(=O)[C@H](Cc1c[nH]c2ccccc12)NC(=O)[C@H](CCC(=O)O)NC(=O)CNC(=O)[C@H](CCSC)NC(=O)[C@@H](NC(=O)[C@H](CC(=O)O)NC(=O)[C@@H]1CCCN1C(=O)[C@H](CCC(N)=O)NC(=O)[C@H](CO)NC(=O)[C@H](CCCCN)NC(=O)[C@H](CCCCN)NC(=O)[C@H](CCCCN)NC(=O)[C@H](CCCCN)NC(=O)[C@H](CCCCN)NC(=O)[C@H](CCCCN)NC(=O)[C@H](CCCCN)NC(=O)[C@H](CCCCN)NC(=O)CCN1C(=O)C=CC1=O)[C@@H](C)CC)[C@@H](C)CC)C(=O)N[C@@H](C)C(=O)NCC(=O)N[C@@H](Cc1ccccc1)C(=O)N[C@@H](CC(C)C)C(=O)NCC(N)=O [PN947] ({Propanoyl(3-maleimido)}-KKKKKKKKSQPDIMGEWGNEIFGAIAGFLG-NH2; N-terminus assumed) | 2.8 | 12.3 | 49.5 | 98.7 | 97.9 | 99.3 | – | – | – | – | 1.23 | 1.44 | 4.6 | – | –
7 | PEG (2 KDa)-Mal-(Lys-His)10-amide ({PEG 2 kDa-Mal}-KHKHKHKHKHKHKHKHKHKH-NH2; reading uncertain) [PN939] | 66 | 97 | 97.3 | – | – | – | 98.6 | 99.7 | 99.1 | effective intracellular delivery of siRNA without negatively impacting cell viability | 3.3 | 35.1 | 3.33 | – | –
8 | PEG (2 KDa)-Mal-(Lys-His)15-amide ({PEG 2 kDa-Mal}-KHKHKHKHKHKHKHKHKHKHKHKHKHKHKH-NH2; reading uncertain) [PN936] | 37.7 | 55.3 | 25.9 | – | – | – | 97.5 | 98.1 | 28.7 | effective intracellular delivery of siRNA without negatively impacting cell viability | 2.66 | 5.86 | – | – | –

From patent US20070275923A1, “CATIONIC PEPTIDES FOR siRNA [sequence] [sequence]” (NASTECH PHARMACEUTICAL COMPANY INC., priority 2006, published 2007)
